# From paper PMC6720094, “Comparative pharmacokinetics of oxyresveratrol alone and in combination with piperine as a bioenhancer in rats” (BMC Complementary and Alternative Medicine, 2019)
# Like-named read-outs stand apart in the source and are kept apart here.
# Key:
# male Wistar rats = assay: Tolerability in rats (AST, ALT, creatinine, physical appearance); format: in vivo, rat
# Method: Rats weighing more than 400 g were enrolled in the pharmacokinetic experiments. All rats were placed into metabolic cages and fasted overnight before the pharmacokinetic experiments. The rats were divided randomly into four groups (n = 6 in each): oxyresveratrol 100 mg/kg p.o., oxyresveratrol 100 mg/kg plus piperine 10 mg/kg p.o., oxyresveratrol 10 mg/kg i.v., and oxyresveratrol 10 mg/kg plus piperine 1 mg/kg i.v. All test formulations were freshly prepared by dissolving the compounds in 40% DMSO/NSS to obtain clear solution. The preparations were administered by oral gavage or intravenous administration via the lateral tail vein. All rats were anaesthetized with 5% isoflurane by chamber induction method to prevent pain and injury during drug administration and blood collection. The blood collection was conducted at 0, 0.083 (5 min), 0.25 (15 min), 0.5 (30 min), 1, 2, 4, 8, 16 and 24 h in unconscious rats. For tissue collection, euthanization with overdose isoflurane > 10% by chamber induction method was conducted at 0.083 (5 min), 1, 2 and 4 h after oral gavage or intravenous administration, and death was confirmed by exsanguination. […] Plasma samples were collected at baseline (0 h) and 24 h from a subset of rats for determination of AST, ALT and creatinine concentrations, performed by Professional Laboratory Management Crop Co., Ltd. Determination of the creatinine level was performed by the chemiluminescence method, while AST and ALT determination was performed with a kinetic method and measured using an automated analyzer (Cobas 6000; Hoffmann–La Roche, Ltd.).
# [1] = Tissue distribution, tissue to plasma ratio (Kp) in rats; format: in vivo
# in vivo = settings: rat
# Method: Rats weighing more than 400 g were enrolled in the pharmacokinetic experiments. All rats were placed into metabolic cages and fasted overnight before the pharmacokinetic experiments. The rats were divided randomly into four groups (n = 6 in each): oxyresveratrol 100 mg/kg p.o., oxyresveratrol 100 mg/kg plus piperine 10 mg/kg p.o., oxyresveratrol 10 mg/kg i.v., and oxyresveratrol 10 mg/kg plus piperine 1 mg/kg i.v. All test formulations were freshly prepared by dissolving the compounds in 40% DMSO/NSS to obtain clear solution. The preparations were administered by oral gavage or intravenous administration via the lateral tail vein. […] Plasma samples were collected at baseline (0 h) and 24 h from a subset of rats for determination of AST, ALT and creatinine concentrations, performed by Professional Laboratory Management Crop Co., Ltd. Determination of the creatinine level was performed by the chemiluminescence method, while AST and ALT determination was performed with a kinetic method and measured using an automated analyzer (Cobas 6000; Hoffmann–La Roche, Ltd.). […]
# The pharmacokinetic parameters were calculated by non–compartmental analysis using PK Solution 2.0 software (Summit Research Service). […] The absolute oral bioavailability of oxyresveratrol was calculated as (AUCp.o./dosep.o.)/(AUCi.v./dosei.v.). […]
# physchem = settings: %Recovery (stability)
# [2] = rat, in vivo, cited from earlier work
# [3] = rat, in vivo, ip, 40 mg/kg; cited from earlier work
# P–glycoprotein [4] = settings: cited from earlier work
# UGT [5] = test system: UGT; set-up: method as in PMID 3917507; settings: mice ref 19, cited from earlier work
# P–glycoprotein [6] = test system: P–glycoprotein; set-up: method as in PMID 12130727; settings: cited from earlier work
# UGT [7] = test system: UGT; set-up: method as in PMID 17487234; settings: cited from earlier work
# [8] = intravenous, oxyresveratrol 10 mg/kg (+ piperine 1 mg/kg in combination), postdose (24 h)
# [9] = intravenous, oxyresveratrol 10 mg/kg (+ piperine 1 mg/kg in combination), predose (0 h) baseline
# [10] = oral, oxyresveratrol 100 mg/kg (+ piperine 10 mg/kg in combination), postdose (24 h)
# [11] = oral, oxyresveratrol 100 mg/kg (+ piperine 10 mg/kg in combination), predose (0 h) baseline
smiles,measurement,setting,value
"Oc1cc(O)cc(C=Cc2ccc(O)cc2O)c1 [Oxyresveratrol, 2,4,3′,5′–tetrahydroxystilbene]",ALT,male Wistar rats; [8],5.80 ± 1.09 U/L
same,AST,male Wistar rats; [8],45.40 ± 3.78 U/L
same,Creatinine,male Wistar rats; [8],0.32 ± 0.08 mg/dL
same,ALT,male Wistar rats; [9],5.00 ± 0.00 U/L
same,AST,male Wistar rats; [9],42.00 ± 7.15 U/L
same,Creatinine,male Wistar rats; [9],0.25 ± 0.15 mg/dL
same,Physical appearance,"male Wistar rats; male Wistar rats, pre-dose and post-dose (24 h), i.v. and oral",normal physical appearance
same,ALT,male Wistar rats; [10],6.83 ± 3.25 U/L
same,AST,male Wistar rats; [10],40.83 ± 22.39 U/L
same,Creatinine,male Wistar rats; [10],0.17 ± 0.01 mg/dL
same,ALT,male Wistar rats; [11],9.40 ± 9.28 U/L
same,AST,male Wistar rats; [11],32.40 ± 16.47 U/L
same,Creatinine,male Wistar rats; [11],0.17 ± 0.01 mg/dL
same,Kp,"[1]; male, Wistar, in vivo, 100 mg/kg, rat, oral gavage, from 5 min to 4 h, read-out: Tissue to plasma ratio of oxyresveratrol, other internal organs (not stomach, small intestine)",1 to 100
same,Kp at 5 min,"[1]; male, Wistar, rat, in vivo, iv",10 to 100
same,Oxyresveratrol level in the brain,"[1]; rat, 1, 2 and 4 h after intravenous administration",Very low levels
same,dose excreted,"in vivo; Wistar, in vivo, iv, Percentage recovery of unchanged oxyresveratrol in urine",5 to 10%
same,Unchanged oxyresveratrol found in feces,in vivo; 0 to 48 h after intravenous dosing,< 1%
same,%Recovery (stability),100 ng/mL,72.84%
same,%Recovery (stability),400 ng/mL,70.43%
same,recovery at 100 ng/mL,physchem,92.6%
same,recovery at 400 ng/mL,physchem,86.3%
same,"recovery at 12 h, 10 ng/mL",physchem,63.5%
same,"recovery at 12 h, 100 ng/mL",physchem,73.5%
same,"recovery at 12 h, 400 ng/mL",physchem,68.2%
same,"recovery at 30 d, 10 ng/mL",physchem,72.4%
same,"recovery at 30 d, 100 ng/mL",physchem,85.8%
same,"recovery at 30 d, 400 ng/mL",physchem,81.1%
same,Tmax,[2]; po,approximately 15 min
same,Absolute oral bioavailability,[2],10–15%
same,Concentration reaching the brain,[3],only a minimal concentration reached the brain
same,P–glycoprotein substrate,P–glycoprotein [4],substrate of P–glycoprotein
"O=C(/C=C/C=C/c1ccc2c(c1)OCO2)N1CCCCC1 [piperine, Piperine]",Decrease of in vivo UGT activity,UGT [5]; piperine 10 mg/kg p.o.,36%
same,Decrease of in vivo UGT activity,UGT [5]; piperine 25 mg/kg p.o.,55%
same,Inhibition of P–glycoprotein,P–glycoprotein [6],inhibit
same,Hepatic microsomal activity of UGT in vitro,UGT [7],reduces
